{
  "source": "patent US20080109040A1",
  "about": "“METHOD OF TREATING ARRHYTHMIAS” (priority 2002, published 2008)",
  "key": {"[1]": {"tested_on": "guinea pig isolated heart", "test": "K-H buffer perfused guinea pig isolated heart: MAP duration, EADs and VT", "settings": "for Effect on ATXII-induced EADs and MAP prolongation: ranolazine 10 μM; for Decrease of MAPS90: ranolazine 10 μmol/L; for Effect on ATXII-induced EADs and VT: ranolazine 5, 10 and 30 μM in the presence of ATXII", "text": "To study the effect of ranolazine on ATXII induced MAP (monophasic action potential) duration prolongation, EADs and ventricular tachyarrhythmia (VT), the K—H buffer perfused guinea pig isolated heart model was used.\nMultiple EADs and sustained depolarizations were frequently observed."}, "[2]": {"tested_on": "guinea pig ventricular myocytes", "test": "Action potential duration, EADs and triggered activity in guinea pig ventricular myocytes", "settings": "for Reduction of ATX-II-induced prolongation of APD50: ATX-II 10-20 nmol/L; for Attenuation of ATXII-induced prolongation of APD50: ATXII 10-40 nmol/L", "experimental": "Single ventricular myocytes were isolated from the hearts of adult, male guinea pigs (Harlan). In brief, the hearts were perfused with warm (35° C.) and oxygenated solutions in the following order: 1) Tyrode solution containing (in mmol/L) 140 NaCl, 4.6 KCl, 1.8 CaCl2, 1.1 MgSO4, 10 glucose and 5 HEPES, pH 7.4, for 5 minutes; 2) Ca^2+-free solution containing (in mmol/L) 100 NaCl, 30 KCl, 2 MgSO4, 10 glucose, 5 HEPES, 20 taurine, and 5 pyruvate, pH 7.4, for 5 minutes; and 3) Ca^2+-free solution containing sollagenase (120 units/ml) and albumin (2 mg/ml), for 20 minutes. At the end of the perfusion, the ventricles were removed, minced, and gently shaken for 10 minutes in solution #3. Isolated cells were harvested from the cell suspension.\nMyocytes were placed into a recording chamber and superfused with Tyrode solution at 35° C. Drugs were applied via the superfusate. Action potentials were measured using glass microelectrodes filled with a solution containing (in mmol/L) 120 K-aspartate, 20 KCl, 1 MgCl2, 4 Na2ATP, 0.1 Na3GTP, 10 glucose, 1 EGTA and 10 HEPES (pH 7.2). Microelectrode resistance was 1-3 MΩ. An Axopatch-200 amplifier, a DigiData-1200A interface and pCLAMP6 software were used to perform electrophysiological measurements. Action potentials were induced by 5-ms depolarizing pulses applied at various frequencies as indicated. The duration of action potential was measured at 50% (APD50) and 90% (APD90) repolarization.\n1) Ventricular myocytes were electrically stimulated at a frequency of 0.5, 1 or 2 Hz. Each myocyte was treated with 3, 10 and 30 μmol/L ranolazine. The effect of ranolazine on action potential duration at each pacing frequency was determined from 4 myocytes.\n2) Action potentials were elicited at a frequency of 0.25 Hz, and the effect of ranolazine (10 μmol/L) on action potential duration was examined in the presence of 5 μmol/L quinidine. Experiments were performed on 4 myocytes.\nFollowing the procedures and protocols of Example 21, guinea pig ventricular myocytes were electrically stimulated in the presence of ranolazine either alone or in the presence of ATX II [a sea anemone toxin known to mimic LQT3 syndrome by slowing Na^+-channel inactivation from the open state and thereby increasing the peak and late Na^+ current (INa) of cardiomyocytes]. ATXII is known to induce early afterdepolarizations (EADs) and triggered activity and ventricular tachycardia.\nAction potentials were recorded using the whole-cell patch-electrode technique. Ventricular monophasic action potentials and electrograms were recorded from isolated hearts.\nThe ventricular APD of guinea pigs isolated myocytes and hearts was measured, respectively, at 50% (APD50) and 90% (MAPD90) repolarization."}, "[3]": {"tested_on": "inward rectifier potassium current (IK1)", "test": "Voltage clamp of inward rectifier IK1 in canine ventricular myocytes", "format": "cell-based", "settings": "ranolazine up to 100 μM", "experimental": "Myocytes were isolated by enzymatic dissociation from a wedge-shaped section of the left ventricular free wall supplied by the left circumflex coronary artery. Cells from the epicardial and midmyocardial regions of the left ventricle were used in this study.\nInward rectifier potassium current (IK), slow delayed rectifier potassium current (IKs), and rapid delayed rectifier potassium current (IKr) were recorded at 37° C. using conventional whole cell voltage clamp configuration.\nIK1 was measured using an external solution containing 3 μM ouabain and 5 μM nifedipine to block the sodium-potassium pump and L-type calcium current (ICa,L), respectively. […] 5 μM nifedipine was present in the external solution when IKr was being recorded. […]\nIKr was measured as the time-dependent tail current elicited at a potential of −40 mV following a short 250 ms depolarizing pulse to 30 mV. Data are presented as mean ±S.E.M. IK1 was recorded during 900 msec voltage steps applied from a holding potential of −40 mV to test potentials ranging from −100 mV to 0 mV, and was characterized as the 5 msec average of the steady state current at the end of the test pulse.\nThe inward rectifier, IK1, was recorded using perforated-patch voltage clamp techniques. […] Panel B plots composite data illustrating the current-voltage relations constructed from the average current measured at the end of each test pulse"}, "[4]": {"settings": "ranolazine 10 μmol/L, ATX-II plus either E-4031 or 293B"}},
  "note": "“Also recorded” adds a separate entry of the source.",
  "data": [
    {"smiles": "COc1ccccc1OCC(O)CN1CCN(CC(=O)Nc2c(C)cccc2C)CC1", "note": "(racemic) [ranolazine, N-(2,6-dimethylphenyl)-4-[2-hydroxy-3-(2-methoxyphenoxy)propyl]-1-piperazineacetamide]", "values": [
      {"measurement": "Effect on ATXII-induced EADs and MAP prolongation", "setting": "[1]; ATXII 20 nM", "value": "reversed"},
      {"measurement": "Effect on ATXII-induced EADs and MAP prolongation", "setting": "[1]; ATXII 20 nM, listed as Ranolazine", "value": "reduced or effectively abolished"},
      {"measurement": "Decrease of MAPS90", "setting": "[1]; ATX-II plus 293B", "value": "8.3±0.1", "unit": "%"},
      {"measurement": "Decrease of MAPS90", "setting": "[1]; ATX-II plus E-4031", "value": "24.5±0.1", "unit": "%"},
      {"measurement": "Effect on ATXII-induced VT", "setting": "[1]; ranolazine 30 μM, ATXII 20 nM", "value": "reduced or effectively abolished"},
      {"measurement": "Effect on ATXII-induced EADs and VT", "setting": "[1]", "value": "VTs were terminated"},
      {"measurement": "Effect on ATXII-induced EADs and VT", "setting": "[1]; listed as Ranolazine", "value": "significantly suppressed EADs and VT"},
      {"measurement": "Reduction of ATX-II-induced prolongation of APD50", "setting": "[2]; ranolazine 0.1 μmol/L", "value": "29±1", "unit": "%"},
      {"measurement": "Reduction of ATX-II-induced prolongation of APD50", "setting": "[2]; ranolazine 0.3 μmol/L", "value": "47±1", "unit": "%"},
      {"measurement": "Reduction of ATX-II-induced prolongation of APD50", "setting": "[2]; ranolazine 1 μmol/L", "value": "63±3", "unit": "%"},
      {"measurement": "Attenuation of ATXII-induced prolongation of APD50", "setting": "[2]; ranolazine 1 μmol/L", "value": "60±4", "unit": "%"},
      {"measurement": "Reduction of ATX-II-induced prolongation of APD50", "setting": "[2]; ranolazine 3 μmol/L", "value": "79±1", "unit": "%"},
      {"measurement": "Attenuation of ATXII-induced prolongation of APD50", "setting": "[2]; ranolazine 3 μmol/L", "value": "80±2", "unit": "%"},
      {"measurement": "Reduction of ATX-II-induced prolongation of APD50", "setting": "[2]; ranolazine 10 μmol/L", "value": "86±2", "unit": "%"},
      {"measurement": "Effect on EADs", "setting": "[2]; [4]", "value": "completely abolished the EADs"},
      {"measurement": "Reversal of the prolongation of APD50", "setting": "[2]; [4]", "value": "about 70%"},
      {"measurement": "Attenuation of ATXII-induced prolongation of APD50", "setting": "[2]; ranolazine 10 μmol/L", "value": "86±2", "unit": "%"},
      {"measurement": "Suppression of quinidine-induced EADs and triggered activity", "setting": "[2]; ranolazine 10 μmol/L, quinidine 2.5 μmol/L", "value": "effective in suppressing EADs; also recorded: effective in suppressing triggered activity; also recorded: suppressed EADs and TA"},
      {"measurement": "Effect on quinidine-induced action potential prolongation", "setting": "[2]; ranolazine 10 μmol/L, quinidine 5 μmol/L, 0.25 Hz", "value": "attenuated the effect of quinidine"},
      {"measurement": "Reduction of ATX-II-induced prolongation of APD50", "setting": "[2]; ranolazine 30 μmol/L", "value": "99±1", "unit": "%"},
      {"measurement": "Attenuation of ATXII-induced prolongation of APD50", "setting": "[2]; ranolazine 30 μmol/L", "value": "99±1", "unit": "%"},
      {"measurement": "Effect on APD50 and APD90", "setting": "[2]; ranolazine 3, 10, 30 μmol/L, 0.5, 1, 2 Hz", "value": "moderate and concentration-dependent shortening"},
      {"measurement": "Effect on IK1", "setting": "[3]", "value": "no change"},
      {"measurement": "Effect on IK1", "setting": "[3]; listed as Ranolazine", "value": "did not alter"}
    ]}
  ]
}
